The record followed here is patent publication US9266835B2, “Quinoline derivatives useful as CB-1 inverse agonists” (JANSSEN PHARMACEUTICA NV, priority 2014, dated 2016).

Experiment [1] has as its target Human CB1R (Cannabinoid receptor 1) (Homo sapiens (Human), UniProt P21554). The experiment can be described thus: CB-1 in vitro cAMP assay (HTRF), inverse agonism. In kind it is cell-based. The conditions noted are these: mean where tested more than once.
The target in experiment [2] is Human CB2R (Cannabinoid receptor 2) (Homo sapiens (Human), UniProt P34972). The experiment can be described thus: CB-2 in vitro cAMP assay (HTRF), inverse agonism. In kind it is cell-based. The settings on record: mean where tested more than once. On the technique in general: Changes in cAMP serve as a functional read-out for many G protein-coupled receptors.
Human CB2R (Cannabinoid receptor 2), sequence (P34972 whole entry): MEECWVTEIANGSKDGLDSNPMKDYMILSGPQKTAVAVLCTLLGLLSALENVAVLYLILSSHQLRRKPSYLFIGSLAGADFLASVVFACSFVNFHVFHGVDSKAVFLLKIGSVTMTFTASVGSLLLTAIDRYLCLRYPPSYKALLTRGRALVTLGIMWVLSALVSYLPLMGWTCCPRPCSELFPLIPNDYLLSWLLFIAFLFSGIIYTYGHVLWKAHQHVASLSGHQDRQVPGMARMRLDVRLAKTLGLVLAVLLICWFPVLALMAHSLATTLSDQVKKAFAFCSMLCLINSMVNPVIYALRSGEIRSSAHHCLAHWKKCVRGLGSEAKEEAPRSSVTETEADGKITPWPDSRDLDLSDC

Human CB1R (Cannabinoid receptor 1), sequence (P21554 whole entry): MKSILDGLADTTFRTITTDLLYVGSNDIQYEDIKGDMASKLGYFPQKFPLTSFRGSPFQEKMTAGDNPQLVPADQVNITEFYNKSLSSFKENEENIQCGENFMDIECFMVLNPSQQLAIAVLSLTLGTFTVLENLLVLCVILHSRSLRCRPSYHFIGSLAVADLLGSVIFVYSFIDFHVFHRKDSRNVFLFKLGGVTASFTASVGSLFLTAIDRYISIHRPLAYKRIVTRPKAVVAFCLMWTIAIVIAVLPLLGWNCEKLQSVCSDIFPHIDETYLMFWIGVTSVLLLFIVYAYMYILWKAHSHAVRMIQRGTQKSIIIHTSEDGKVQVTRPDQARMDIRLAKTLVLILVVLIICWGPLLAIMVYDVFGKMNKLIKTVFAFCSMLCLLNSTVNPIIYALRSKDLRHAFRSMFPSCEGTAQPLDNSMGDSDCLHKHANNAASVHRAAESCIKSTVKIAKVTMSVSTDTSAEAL

As for `Cn1c(=O)cc(CCc2cccc(Cl)c2)c2cc(C(c3ccc(Cl)cc3)c3nccs3)ccc21` (stereo not drawn) [Compound 9, 4-(3-chlorophenethyl)-6-((4-chlorophenyl)(thiazol-2-yl)methyl)-1-methylquinolin-2(1H)-one], the EC50 – broadly, the concentration that produces a half-maximal response – in experiment [1] is 169 nM; in experiment [2] it was above 10000 nM.

As to `Clc1ccc(C(c2ccc3nccc(/C=C/c4ccccc4)c3c2)c2cccs2)cc1` (stereo not drawn) [Compound 508, 6-[(4-Chlorophenyl)(thiophen-2-yl)methyl]-4-[(E)-2-phenylethenyl]quinoline], the EC50 was 375 nM in experiment [1] and above 10000 nM in experiment [2].

`COCCCc1cc(C(c2ccc(Cl)cc2)c2ccc(Cl)cc2)cc2c(NC3CCN(S(=O)(=O)C(F)(F)F)CC3)cc(=O)[nH]c12` [Compound 140, 6-(bis(4-chlorophenyl)methyl)-8-(3-methoxypropyl)-4-((1-((trifluoromethyl)sulfonyl)piperidin-4-yl)amino)quinolin-2(1H)-one]: the EC50 in experiment [1] amounted to 13 nM; in experiment [2], 60 nM.

In the case of `CC(C)(C)OC(=O)COc1cc(NC2CCN(S(=O)(=O)C(F)(F)F)CC2)c2cc(C(c3ccc(Cl)cc3)c3ccc(Cl)cc3)ccc2n1` [Compound 531, tert-Butyl ({6-[bis(4-chlorophenyl)methyl]-4-({1-[(trifluoromethyl)sulfonyl]-piperidin-4-yl}amino)quinolin-2-yl}oxy)acetate], the concentration for a half-maximal effect (EC50) in experiment [1] and in experiment [2] was above 10000 nM in each case.

Regarding `O=c1cc(NC2CCN(S(=O)(=O)C(F)(F)F)CC2)c2cc(C(c3ccc(Cl)cc3)N3CCN(c4ccccc4)CC3)ccc2[nH]1` (stereo not drawn) [Compound 137, 6-((4-chlorophenyl)(4-phenylpiperazin-1-yl)methyl)-4-((1-((trifluoromethyl)sulfonyl)piperidin-4-yl)amino)quinolin-2(1H)-one], the 50% effective concentration (EC50) is 290 nM in experiment [1] and above 10000 nM in experiment [2].

Consider `CCOC(=O)CCCNc1cc(C(c2ccc(Cl)cc2)c2ccc(Cl)cc2)cc2c(NC3CCN(S(=O)(=O)C(F)(F)F)CC3)cc(=O)[nH]c12` [Compound 104, Ethyl 4-({6-[bis(4-chlorophenyl)methyl]-2-oxo-4-({1-[(trifluoromethyl)sulfonyl]-piperidin-4-yl}amino)-1,2-dihydroquinolin-8-yl}amino)butanoate], for which the results for the concentration for a half-maximal effect (EC50) in experiment [1] and in experiment [2] were 1120 nM and above 10000 nM, respectively.

As for `NC(=O)COc1ccc(Nc2cc(=O)[nH]c3ccc(C(c4ccc(Cl)cc4)c4ccc(Cl)cc4)cc23)cc1` [Compound 111, 2-(4-((6-(bis(4-chlorophenyl)methyl)-2-oxo-1,2-dihydroquinolin-4-yl)amino)phenoxy)acetamide], the 50% effective concentration (EC50) in experiment [1] was 99 nM; in experiment [2] it was above 10000 nM.

For `O=C(O)CCCNc1cc(C(c2ccc(Cl)cc2)c2ccc(Cl)cc2)cc2c(NC3CCN(S(=O)(=O)C(F)(F)F)CC3)cc(=O)[nH]c12` [Compound 108, 4-((6-(bis(4-chlorophenyl)methyl)-2-oxo-4-((1-((trifluoromethyl)sulfonyl)piperidin-4-yl)amino)-1,2-dihydroquinolin-8-yl)amino)butanoic acid], the EC50 in experiment [1] came to 310 nM; in experiment [2], 460 nM.

Regarding `O=c1cc(CCc2cccc(Cl)c2)c2cc(C(O)(c3ccc(Cl)cc3)c3nccs3)ccc2[nH]1` (stereo not drawn) [Compound 8, 4-(3-chlorophenethyl)-6-((4-chlorophenyl)(hydroxy)(thiazol-2-yl)methyl)quinolin-2(1H)-one], the EC50 was 876 nM in experiment [1] and above 10000 nM in experiment [2].

On to `NCCCCNc1cc(C(c2ccc(Cl)cc2)c2ccc(Cl)cc2)cc2c(NC3CCN(S(=O)(=O)C(F)(F)F)CC3)cc(=O)[nH]c12` [Compound 141, 8-((4-aminobutyl)amino)-6-(bis(4-chlorophenyl)methyl)-4-((1-((trifluoromethyl)sulfonyl)piperidin-4-yl)amino)quinolin-2(1H)-one], for which the 50% effective concentration (EC50) in experiment [1] is 625 nM; in experiment [2], above 10000 nM.

In the case of `CC(=O)N1CCN(c2cc(OS(=O)(=O)C(F)(F)F)nc3ccc(C(c4ccc(Cl)cc4)c4nccs4)cc23)CC1` (stereo not drawn) [Compound 522, 4-(4-Acetylpiperazin-1-yl)-6-[(4-chlorophenyl)(1,3-thiazol-2-yl)methyl]quinolin-2-yl trifluoromethanesulfonate], the 50% effective concentration (EC50) in experiment [1] and in experiment [2] was above 10000 nM in each case.

With `Clc1ccc(C(c2ccsc2)c2ccc3nccc(/C=C/c4ccccc4)c3c2)cc1` (stereo not drawn) [Compound 509, 6-[(4-Chlorophenyl)(thiophen-3-yl)methyl]-4-[(E)-2-phenylethenyl]quinoline], the concentration for a half-maximal effect (EC50) is 140 nM in experiment [1] and above 10000 nM in experiment [2].

Turning to `O=C(O)c1ccc(S(=O)(=O)N2CCC(Nc3cc(=O)[nH]c4ccc(C(c5ccc(Cl)cc5)c5ccc(Cl)cc5)cc34)CC2)cc1` [Compound 122, 4-((4-((6-(bis(4-chlorophenyl)methyl)-2-oxo-1,2-dihydroquinolin-4-yl)amino)piperidin-1-yl)sulfonyl)benzoic acid], the 50% effective concentration (EC50) in experiment [1] worked out at 159 nM; in experiment [2] it was 240 nM.

As for `O=C(c1ccc(Nc2cc(=O)[nH]c3ccc(C(c4ccc(Cl)cc4)c4ccc(Cl)cc4)cc23)cc1F)N1CCCC1` [Compound 138], the half-maximal effective concentration (EC50) turned out to be 227 nM in experiment [1] and 750 nM in experiment [2].

For the compound `CC(C)(C)OC(=O)N1CC[C@@H](Nc2cc(=O)[nH]c3ccc(C(c4ccc(Cl)cc4)c4nccs4)cc23)C1` (stereo partly drawn) [Compound 46, tert-Butyl (3R)-3-({6-[(4-chlorophenyl)(1,3-thiazol-2-yl)methyl]-2-oxo-1,2-dihydroquinolin-4-yl}amino)pyrrolidine-1-carboxylate], the EC50 is 657 nM in experiment [1] and above 10000 nM in experiment [2].

`O=C(O)c1ccc(CN2CCC(Nc3cc(=O)[nH]c4ccc(C(c5ccc(Cl)cc5)c5ccc(Cl)cc5)cc34)CC2)s1` [Compound 128, 5-{[4-({6-[Bis(4-chlorophenyl)methyl]-2-oxo-1,2-dihydroquinolin-4-yl}amino)piperidin-1-yl]methyl}thiophene-2-carboxylic acid]: the EC50 stood at 293 nM in experiment [1] and 9700 nM in experiment [2].

With `O=c1cc(NC2CCN(S(=O)(=O)C(F)(F)F)CC2)c2cc(C(Oc3ccc(Cl)cc3)c3ccc(Cl)cc3)ccc2[nH]1` (stereo not drawn) [Compound #136, 6-[4-chlorophenoxy(4-chlorophenyl)methyl]-4-[[1-(trifluoromethane)sulfonylpiperidin-4-yl]amino]-1,2-dihydroquinolin-2-one], the EC50 was 122 nM in experiment [1] and above 10000 nM in experiment [2].

As to `COCCNc1ccc(C(c2ccc(Cl)cc2)c2cc(NCCOC)c3[nH]c(=O)cc(NC4CCN(S(=O)(=O)C(F)(F)F)CC4)c3c2)cc1` (stereo not drawn) [Compound 101, 6-((4-chlorophenyl)(4-((2-methoxyethyl)amino)phenyl)methyl)-8-((2-methoxyethyl)amino)-4-((1-((trifluoromethyl)sulfonyl)piperidin-4-yl)amino)quinolin-2(1H)-one], the EC50 in experiment [1] worked out at 15 nM; in experiment [2], 910 nM.

Regarding `O=c1cc(NCc2cccc(C(F)(F)F)c2)c2cc(C(c3ccc(Cl)cc3)c3ccc(Cl)cc3)ccc2[nH]1` [Compound #61, 6-(bis(4-chlorophenyl)methyl)-4-((3-(trifluoromethyl)benzyl)amino)quinolin-2(1H)-one], the EC50 in experiment [1] was found to be 7 nM; in experiment [2], 1810 nM.

For `COc1cc(NC2CCN(S(=O)(=O)C(F)(F)F)CC2)c2cc(C(c3ccc(Cl)cc3)c3ccc(Cl)cc3)cc(Br)c2n1` [Compound 546, 6-(bis(4-chlorophenyl)methyl)-8-bromo-2-methoxy-N-(1-((trifluoromethyl)sulfonyl)piperidin-4-yl)quinolin-4-amine], the EC50 in experiment [1] was 121 nM; in experiment [2], 4800 nM.

With `OC(c1ccc(Cl)cc1)(c1ccc2nccc(/C=C/c3ccccc3)c2c1)c1cscn1` (stereo not drawn) [Compound 517, (E)-(4-chlorophenyl)(4-styrylquinolin-6-yl)(thiazol-4-yl)methanol], the results for the EC50 in experiment [1] and in experiment [2] were 884 nM and 340 nM, respectively.

In the case of `O=c1cc(NC2CCN(S(=O)(=O)C(F)(F)F)CC2)c2cc(C(c3ccc(Cl)cc3)c3ccc(Cl)cc3)cc(Br)c2[nH]1` [Compound 92, 6-(bis(4-chlorophenyl)methyl)-8-bromo-4-((1-((trifluoromethyl)sulfonyl)piperidin-4-yl)amino)quinolin-2(1H)-one], the EC50 in experiment [1] turned out to be 10 nM; in experiment [2], 50 nM.

For `NC(=O)CCCOc1ccc(Nc2cc(=O)[nH]c3ccc(C(c4ccc(Cl)cc4)c4ccc(Cl)cc4)cc23)cc1` [Compound 123, 4-[4-({6-[Bis(4-chlorophenyl)methyl]-2-oxo-1,2-dihydroquinolin-4-yl}amino)phenoxy]butanamide], the 50% effective concentration (EC50) is 219 nM in experiment [1] and above 10000 nM in experiment [2].

For `Clc1ccc(C(c2ccc3nccc(/C=C/c4ccccc4)c3c2)c2nccs2)cc1` (stereo not drawn) [Compound 511, (E)-2((4-chlorophenyl)(4-styrylquinolin-6-yl)methyl)thiazole], the results for the 50% effective concentration (EC50) in experiment [1] and in experiment [2] were 136 nM and above 10000 nM, respectively.

As for `COC/C=C/c1cc(C(c2ccc(Cl)cc2)c2ccc(Cl)cc2)cc2c(NC3CCN(S(=O)(=O)C(F)(F)F)CC3)cc(OC)nc12` [Compound 547, 6-(bis(4-chlorophenyl)methyl)-2-methoxy-8-(3-methoxyprop-1-en-1-yl)-N-(1-((trifluoromethyl)sulfonyl)piperidin-4-yl)quinolin-4-amine], the 50% effective concentration (EC50) in experiment [1] is 36 nM; in experiment [2], above 42000 nM.

With `O=c1cc(/C=C/c2cccc(C(F)(F)F)c2)c2cc(C(c3ccc(Cl)cc3)c3cccs3)ccc2[nH]1` (stereo not drawn) [Compound 26, 6-[(4-Chlorophenyl)(thiophen-2-yl)methyl]-4-{(E)-2-[3-(trifluoromethyl)phenyl]-ethenyl}quinolin-2(1H)-one], the EC50 in experiment [1] is 333 nM; in experiment [2], above 10000 nM.

Take `O=C(O)CC(=O)N1CCC(Nc2cc(=O)[nH]c3ccc(C(c4ccc(Cl)cc4)c4ccc(Cl)cc4)cc23)CC1` [Compound 96, 3-[4-({6-[Bis(4-chlorophenyl)methyl]-2-oxo-1,2-dihydroquinolin-4-yl}amino)piperidin-1-yl]-3-oxopropanoic acid]: the EC50 in experiment [1] was 220 nM; in experiment [2], above 10000 nM.
